From patent US5177087A, “Cyclic amine compounds and their use” (Takeda Chemical Industries, Ltd., priority 1989, dated 1993)
Structures can show the parent of a compound that is named as a salt. Where two headings read alike, the source gives them in different places.

Legend:
[1] = Antihypoxic action: survival time of mice in a decompressed desiccator; assay type: in vivo, Male mice (ICR/Jcl strain); details: Mus musculus, ip, read-out: survival time of drug-treated group (mean survival time of control group = 100)
Description: Male mice (ICR/Jcl strain, 5-6 weeks old) were divided into two groups, i.e. a control group and a drug-treated group. A desiccator was decompressed to an internal pressure of 35 mmHg with a vacuum pump and, then, connected to two desiccators housing mice of the two groups, respectively. After an equilibrium was established in internal pressure among the desiccators, the time to the onset of respiratory arrest of each mouse in each group was measured and regarded as survival time. Then, taking the mean survival time in the control group as 100, the survival time of the drug-treated group was expressed in percentage (Table 7). The test drug was administered intraperitoneally 30 minutes before induction of hypoxia. The control group received physiological saline.

cholinesterase = target: T1, cholinesterase (Rattus norvegicus, UniProt P37136); experiment: Anti-cholinesterase action, (acetyl-[^3 H])-acetylcholine as substrate, S1 fraction of cerebral cortex homogenate; assay type: biochemical, male Wistar rats
T1 construct: the S1 fraction of the cerebral cortex homogenate from male Wistar rats was used as cholinesterase source; from tissue; host or cells: cerebral cortex homogenate, S1 fraction, male Wistar rats
Description: The anti-cholinesterase action of the compound of the present invention was investigated using (acetyl-[^3 H])-acetylcholine. Thus, the S1 fraction of the cerebral cortex homogenate from male Wistar rats was used as cholinesterase source, and (acetyl-[^3 H])-acetylcholine as the substrate and the compound of the invention as the test compound were incubated for 30 minutes and after termination of the reaction, a toluene scintillator was added. The mixture was shaken and the radioactivity of the reaction product [^3 H]-acetic acid in the toluene layer was measured with a scintillation counter to estimate the cholinesterase-antagonizing activity.
The anticholinesterase activity of the test compound was expressed as 50% inhibitory concentration (IC50) in Table 9.

[2] = Antiedematous action on the brain: microsphere-induced cerebral edema, water, sodium and ion contents of hemisphere; assay type: in vivo, Male rats (Wistar/Jcl); details: 72 hours after microsphere infusion
Source text: Male rats (Wistar/Jcl, 11 weeks old) underwent cervical incision under ether anesthesia and the pterygopalatine artery and external carotid artery were ligated. After blockade of the common carotid artery bloodstream, a cannula was inserted retrogradely from the external carotid artery and indwelt at the origin of the internal carotid artery. Then, a suspension of carbon microspheres (50±10 μm in diameter) in 20% dextran was infused selectively into the internal carotid artery through the indwelt cannula over a period of about 10 seconds. Seventy-two hours after infusion, the brain was removed and divided into the right and left cerebral hemispheres. Then, the water, sodium and ion contents of each hemisphere were determined. The test drug was administered intraperitoneally 30 minutes before and 5 hours after infusion of the microspheres on the day of microsphere infusion and twice a day, i.e. in the morning and in the afternoon, thereafter till the end of the experiment. 5% Gum arabic was used in the control group.

[3] = Action on scopolamine-induced impairment of spontaneous alternation in a T-maze; assay type: in vivo, rats
Description: The nootropic effect of the compound of the invention (Example 59) was investigated using spontaneous alternation in rats (Murray and Fibiger, Behav Neurosci. 100, 23-32, 1986) as an indicator. Nine-week-old rats were used. Feeding was restricted so that the body weight of the rat would be reduced to about 80% of free-feeding weight. Then, training was started. Training consisted of 11 trials. In the first trial one food pellet (45 mg) was placed in each of food receptacles set at ends of two arms and the rat was allowed to select either arm freely for the food reward. In the subsequent 10 trials from the second to the eleventh trial, the diet was placed only on the arm opposite to the arm which had been selected immediately before. The selection of the arm where the diet was placed was regarded as a correct response. In each acquistion trial, the rat was first placed in a home compartment and 15 seconds later the door was opened to let the animal explore freely and select either arm. The rat was brought back to the home compartment after it had ingested the pellet in the case of a correct response or after it had reached the food receptacle in the case of an incorrect response. In the experiment, the rats which had attained the correct response rate of not less than 80% were used. Scopolamine bromide was administered intraperitoneally in a dose of 0.3 mg/kg 30 minutes before the beginning of the experiment and the test compound (Example 59) was administered orally 30 minutes before scopolamine administration. The results of the experiment are expressed in correct response rate. For the analysis of significant difference between the groups, Student's t-test (two-tailed) was used. In the first experiment, groups of 7-9 rats were used, and in the second experiment, groups of 12-14 rats were used. The results are shown in Table 10 (the results in the second experiment are shown in the parentheses).

[4] = 10 mg/kg, i.p., 30 minutes before hypoxia, 35 mmHg
[5] = 30 minutes incubation, read-out: Anticholinesterase activity IC50

T1 sequence (P37136 32-614): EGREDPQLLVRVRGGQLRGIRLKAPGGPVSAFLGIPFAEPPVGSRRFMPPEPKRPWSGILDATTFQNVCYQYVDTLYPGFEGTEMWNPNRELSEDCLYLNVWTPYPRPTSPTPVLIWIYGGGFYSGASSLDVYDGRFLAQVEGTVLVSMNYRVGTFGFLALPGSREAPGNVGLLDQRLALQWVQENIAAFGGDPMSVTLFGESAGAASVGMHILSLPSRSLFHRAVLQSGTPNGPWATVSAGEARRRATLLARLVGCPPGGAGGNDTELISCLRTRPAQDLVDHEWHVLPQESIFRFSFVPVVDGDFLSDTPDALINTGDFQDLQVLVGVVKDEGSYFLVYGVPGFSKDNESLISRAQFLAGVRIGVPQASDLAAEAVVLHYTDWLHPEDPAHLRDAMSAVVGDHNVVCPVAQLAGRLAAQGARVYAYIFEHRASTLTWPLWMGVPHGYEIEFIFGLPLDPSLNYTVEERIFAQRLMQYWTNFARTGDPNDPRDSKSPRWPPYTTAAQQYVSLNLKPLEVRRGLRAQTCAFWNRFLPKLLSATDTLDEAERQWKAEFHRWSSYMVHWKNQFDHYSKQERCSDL

Question: Which results are given for `OC(c1ccncc1)c1ccc(N2CCCCC2)cc1` (stereo not drawn) [Example 12, 4-[(α-Hydroxy-4-piperidino)benzyl]pyridine dihydrochloride]?
Answer: response vs control in vivo at 0.1 mg/kg [1]: 84 ± 4%; response vs control in vivo at 0.5 mg/kg [1]: 152 ± 19%; response vs control in vivo at 2 mg/kg [1]: 163 ± 23%; response vs control in vivo at 10 mg/kg [1, 4]: 132 ± 8%

Question: For `O=C(CCC1CCN(Cc2ccccc2)CC1)c1ccc(N2CCOCC2)cc1` [Example 60-20], which IC50 (cholinesterase; [5]) is on record?
Answer: 0.015 µM

Question: For `CCNc1ccc(C(=O)CCC2CCN(Cc3ccccc3)CC2)cc1` [Example 60-4], which IC50 (cholinesterase; [5]) is on record?
Answer: 0.098 µM

Question: With `O=C(CCC1CCN(Cc2ccccc2)CC1)c1ccc(N2CCCC2)cc1` [Example 60-10] as the compound, how does the IC50 (cholinesterase; [5]) read?
Answer: 0.04 µM

Question: With `CN1CCN(c2ccc(C(=O)CCC3CCN(Cc4ccccc4)CC3)cc2)CC1` [Example 60-14] as the compound, how does the IC50 (cholinesterase; [5]) read?
Answer: 0.0068 µM

Question: Which IC50 (cholinesterase; [5]) does the source give for `O=C(CCC1CCN(Cc2ccccc2)CC1)c1ccc(N2CCNCC2)cc1` [Example 60-17] here?
Answer: 0.0061 µM

Question: With `O=C(CCC1CCN(Cc2ccccc2)CC1)c1ccc(-n2ccnc2)cc1` [Example 60-6] as the compound, how does the IC50 (cholinesterase; [5]) read?
Answer: 0.02 µM

Question: With `O=C(CCC1CCN(Cc2ccccc2)CC1)c1ccc(NCCN2CCCCC2)cc1` [Example 60-22] as the compound, how does the IC50 (cholinesterase; [5]) read?
Answer: 0.017 µM

Question: Which response vs control in vivo at 0.5 mg/kg [1] does the source give for `CN(C)c1ccc(CC2CCNCC2)cc1` [Example 20, 4-(4-Dimethylaminobenzyl)piperidine dihydrochloride] here?
Answer: 99 ± 5%

Question: What about the response vs control in vivo at 2 mg/kg [1] of the same compound?
Answer: 118 ± 5%

Question: What about the Water ([2]; 5 mg × 7, i.p., control group 80.59 ± 0.19) of the same compound?
Answer: 79.80 ± 0.19%

Question: What about the Na ([2]; 5 mg × 7, i.p., control group 306 ± 10) of the same compound?
Answer: 268 ± 8 mEq/kg

Question: What about the K ([2]; 5 mg × 7, i.p., control group 488 ± 2) of the same compound?
Answer: 499 ± 5 mEq/kg

Question: Which results are given for `c1cc(N2CCCCC2)ccc1CC1CCNCC1` [Example 21-1, 4-(4-piperidinobenzyl)piperidine dihydrochloride]?
Answer: response vs control in vivo at 0.1 mg/kg [1]: 133 ± 11%; response vs control in vivo at 0.5 mg/kg [1]: 155 ± 21%; response vs control in vivo at 2 mg/kg [1]: 231 ± 59%; response vs control in vivo at 10 mg/kg [1]: 277 ± 55%

Question: Which results are given for `OC(c1ccc(N2CCCCC2)cc1N1CCCCC1)C1CCNCC1` (centres unmarked) [Example 14-6]?
Answer: response vs control in vivo at 0.1 mg/kg [1]: 120 ± 7%; response vs control in vivo at 0.5 mg/kg [1]: 154 ± 17%; response vs control in vivo at 2 mg/kg [1]: 143 ± 17%; response vs control in vivo at 10 mg/kg [1, 4]: 123 ± 6%; Water ([2]; 50 mg × 7, i.p., control group 80.35 ± 0.22): 79.36 ± 0.13%; Na ([2]; 50 mg × 7, i.p., control group 305 ± 19): 256 ± 5 mEq/kg; K ([2]; 50 mg × 7, i.p., control group 488 ± 11): 506 ± 5 mEq/kg

Question: Which IC50 (cholinesterase; [5]) does the source give for `CC(=O)N1CCN(c2ccc(C(=O)CCC3CCN(Cc4ccccc4)CC3)cc2)CC1` [Example 60-19] here?
Answer: 0.0029 µM

Question: With `O=C(CCC1CCN(Cc2ccccc2)CC1)c1ccc(N2CCCCC2)cc1` [Example 60-1] as the compound, how does the IC50 (cholinesterase; [5]) read?
Answer: 0.052 µM

Question: Which IC50 (cholinesterase; [5]) does the source give for `O=C(CCC1CCN(Cc2ccccc2)CC1)c1ccc(N2CCCC2)cc1` [Example 60-11] here?
Answer: 0.032 µM

Question: Which IC50 (cholinesterase; [5]) does the source give for `O=C(CCC1CCN(Cc2ccccc2)CC1)c1ccc(N2CCOCC2)cc1` [Example 60-5] here?
Answer: 0.01 µM

Question: With `O=C(CCC1CCN(Cc2ccccc2)CC1)c1ccc(N2CCCCCC2)cc1` [Example 60-2] as the compound, how does the IC50 (cholinesterase; [5]) read?
Answer: 0.25 µM

Question: Which results are given for `O=C(CCC1CCN(Cc2ccccc2)CC1)c1ccc(N2CCCC2)cc1` [Example 59, 1-Benzyl-4-[2-(4-pyrrolidinobenzoyl)ethyl]piperidine]?
Answer: IC50 (cholinesterase; Anticholinesterase activity IC50, 30 minutes incubation): 0.027 µM; Mean correct response rate ± standard error ([3]; 3 mg/kg p.o. + scopolamine 0.3 mg/kg i.p., first experiment, scopolamine control 53.8 ± 4.6): 61.4 ± 7.1; ameliorative effect on correct response rate ([3]; 10 mg/kg): significant ameliorative effect; antagonism of the decrease of correct response rate by scopolamine ([3]; 3 and 10 mg/kg p.o.): dose-dependently antagonized

Question: With `CN(C)c1ccc(C(=O)CCC2CCN(Cc3ccccc3)CC2)cc1` [Example 60-13] as the compound, how does the IC50 (cholinesterase; [5]) read?
Answer: 0.048 µM

Question: Which IC50 (cholinesterase; [5]) does the source give for `O=C(CCCC1CCN(Cc2ccccc2)CC1)c1ccc(N2CCCC2)cc1` [Example 69, 1-Benzyl-4-[3-(4-pyrrolidinobenzoyl)propyl]piperidine fumarate] here?
Answer: 0.22 µM

Question: For `CN(C)c1ccc(C(=O)CCC2CCN(Cc3ccccc3)CC2)cc1` [Example 60-3], which IC50 (cholinesterase; [5]) is on record?
Answer: 0.053 µM

Question: For `CNc1ccc(C(=O)CCC2CCN(Cc3ccccc3)CC2)cc1` [Example 60-8], which IC50 (cholinesterase; [5]) is on record?
Answer: 0.15 µM

Question: For `O=C(CCC1CCN(Cc2ccccc2)CC1)c1ccc(N2CCN(C(c3ccccc3)c3ccccc3)CC2)cc1` [Example 60-21], which IC50 (cholinesterase; [5]) is on record?
Answer: 0.71 µM

Question: Which IC50 (cholinesterase; [5]) does the source give for `O=C(CCC1CCN(Cc2ccccc2)CC1)c1ccc(N2CCCC2)cc1` [Example 60-12] here?
Answer: 0.028 µM

Question: For `O=C(c1ccc(N2CCN(Cc3ccccc3)CC2)cc1)C1CCNCC1` [Example 11-4], which response vs control in vivo at 0.1 mg/kg [1] is on record?
Answer: 116 ± 11%

Question: What about the response vs control in vivo at 0.5 mg/kg [1] of the same compound?
Answer: 148 ± 17%

Question: What about the response vs control in vivo at 2 mg/kg [1] of the same compound?
Answer: 288 ± 82%

Question: What about the response vs control in vivo at 10 mg/kg [1, 4] of the same compound?
Answer: 216 ± 53%

Question: Which results are given for `OC(c1ccc(N2CCN(Cc3ccccc3)CC2)cc1)C1CCNCC1` (centres unmarked) [Example 14-4]?
Answer: response vs control in vivo at 0.5 mg/kg [1]: 152 ± 28%; response vs control in vivo at 2 mg/kg [1]: 188 ± 22%; response vs control in vivo at 10 mg/kg [1, 4]: 197 ± 32%

Question: For `CN1CCN(c2ccc(C(=O)CCC3CCN(Cc4ccccc4)CC3)cc2)CC1` [Example 60-7], which IC50 (cholinesterase; [5]) is on record?
Answer: 0.0084 µM

Question: Which response vs control in vivo at 0.1 mg/kg [1] does the source give for `c1ccc(CC2CCN(c3ccc(CC4CCNCC4)cc3)CC2)cc1` [Example 21-2] here?
Answer: 165 ± 26%

Question: And the response vs control in vivo at 0.5 mg/kg [1]?
Answer: 147 ± 14%

Question: What about the response vs control in vivo at 2 mg/kg [1] of the same compound?
Answer: 147 ± 8%

Question: And the response vs control in vivo at 10 mg/kg [1, 4]?
Answer: 280 ± 59%

Question: For `O=C(CCC1CCN(Cc2ccccc2)CC1)c1ccc(N2CCCCC2)cc1` [Example 60-15], which IC50 (cholinesterase; [5]) is on record?
Answer: 0.061 µM

Question: What does the source list for `OC(c1ccc(N2CCC(Cc3ccccc3)CC2)cc1)C1CCNCC1` (centres unmarked) [Example 14-3]?
Answer: response vs control in vivo at 0.1 mg/kg [1]: 108 ± 9%; response vs control in vivo at 0.5 mg/kg [1]: 162 ± 24%; response vs control in vivo at 2 mg/kg [1]: 137 ± 11%; response vs control in vivo at 10 mg/kg [1, 4]: 398 ± 95%
